Data reported in US20220315554A1, “COMPOUNDS COMPRISING A […] LIGAND AND USE THEREOF” (priority 2019, published 2022).
Numbered stars: 1 amine (or outer) side, 2 acyl side, 3 side chain; on linkers, the order of the positions; unused ones are H or OH. Bridge positions count the residues as written; N and C are the ends. Square brackets hold non-standard residues; d marks the D form. Peptide text beside a SMILES is read from it. * marks the point of attachment. X2 = O=C(O)CN1CCN(CC(=O)O)CCN(CC(=O)NCCCOCCOCCOCCCN*)CCN(CC(=O)O)CC1; DOTA = O=C(O)CN1CCN(CC(=O)O)CCN(CC(=O)*)CCN(CC(=O)O)CC1; mXylylene = c1cc(C[*:1])cc(C[*:2])c1; 3Pal = N[C@@H](Cc1cccnc1)C(=O)O; Suc = O=C(CCC(=O)[*:2])[*:1]; Nle = CCCC[C@H](N)C(=O)O

Legend:
[1] = biological target: T1, FAP-expressing human WI-38 fibroblasts (Homo sapiens, UniProt Q12884); test: Competitive FACS binding assay; details: pIC50 Category (FACS), competition with 3 nM Cy5-labeled compound, WI-38 fibroblasts, 4° C., 1 hour
T1 construct: FAP-expressing human WI-38 fibroblasts (ECACC) were cultured in EMEM; host or cells: WI-38 human fibroblasts
T1 sequence (Q12884 1-760): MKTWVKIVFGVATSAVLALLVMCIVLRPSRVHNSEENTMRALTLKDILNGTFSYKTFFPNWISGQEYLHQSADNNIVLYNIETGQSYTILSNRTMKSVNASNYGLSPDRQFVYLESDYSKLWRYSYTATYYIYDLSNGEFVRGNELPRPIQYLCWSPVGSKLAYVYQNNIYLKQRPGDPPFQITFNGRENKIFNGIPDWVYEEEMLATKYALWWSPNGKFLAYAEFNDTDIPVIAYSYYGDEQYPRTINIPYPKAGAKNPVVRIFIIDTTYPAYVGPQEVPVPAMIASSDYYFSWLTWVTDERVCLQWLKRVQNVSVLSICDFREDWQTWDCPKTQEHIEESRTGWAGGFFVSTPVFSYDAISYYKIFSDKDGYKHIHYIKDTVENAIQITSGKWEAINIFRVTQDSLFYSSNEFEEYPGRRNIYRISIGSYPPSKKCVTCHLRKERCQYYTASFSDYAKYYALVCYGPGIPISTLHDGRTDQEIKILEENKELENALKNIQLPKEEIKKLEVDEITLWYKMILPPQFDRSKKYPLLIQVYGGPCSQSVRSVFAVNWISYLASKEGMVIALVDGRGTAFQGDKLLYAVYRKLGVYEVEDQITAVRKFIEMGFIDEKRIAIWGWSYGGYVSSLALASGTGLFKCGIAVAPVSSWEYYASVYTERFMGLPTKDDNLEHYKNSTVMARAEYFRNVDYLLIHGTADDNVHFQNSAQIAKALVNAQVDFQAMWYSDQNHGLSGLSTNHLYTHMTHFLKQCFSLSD
Procedure: Cells were analyzed in an Attune NxT flow cytometer. […]

Human recombinant FAP = biological target: T2, Human recombinant FAP (Homo sapiens, UniProt Q12884); test: FRET-based FAP protease activity assay; format: biochemical; design: purchased R&D systems 3715-SE; details: pIC50 Category (Activity), recombinant human FAP, FRET substrate, 37° C.
T2 sequence (Q12884 1-760): T1 sequence (Q12884 1-760)

Row | SMILES | IC50 [1] | IC50 (Human recombinant FAP)
1 | CCCC[C@H](NC(=O)CN1CCN(CC(=O)O)CCN(CC(=O)O)CCN(CC(=O)O)CC1)C(=O)N[C@H]1CSCc2cccc(c2)CSC[C@@H](C(=O)N[C@@H](CC(=O)O)C(=O)N[C@@H](Cc2c[nH]cn2)C(=O)N[C@@H](Cc2ccccc2)C(=O)N[C@@H](CCCNC(=N)N)C(=O)N[C@@H](CC(=O)O)C(N)=O)NC(=O)[C@H](Cc2ccccc2)NC(=O)[C@H](CCC(=O)O)NC(=O)[C@H]([C@@H](C)O)NC(=O)[C@@H]2CCCN2C(=O)[C@@H]2CCCN2C1=O [3BP-3088, DOTA-Nle-[Cys(3MeBn)-Pro-Pro-Thr-Glu-Phe-Cys]-Asp-His-Phe-Arg-Asp-NH2] ({DOTA}-[Nle]CPPTEFCDHFRD-NH2; linker 2-8 via mXylylene) | 100 to 794 nM | 100 to 794 nM
2 | CSCC[C@H](NC(=O)CN1CCN(CC(=O)O)CCN(CC(=O)O)CCN(CC(=O)O)CC1)C(=O)N[C@H]1CSCc2cccc(c2)CSC[C@@H](C(=O)N[C@@H](CC(=O)O)C(=O)N[C@@H](Cc2c[nH]cn2)C(=O)N[C@@H](Cc2ccccc2)C(=O)N[C@@H](CCCNC(=N)N)C(=O)N[C@@H](CC(=O)O)C(N)=O)NC(=O)[C@H](Cc2ccccc2)NC(=O)[C@H](CCC(=O)O)NC(=O)[C@H]([C@@H](C)O)NC(=O)[C@@H]2CCCN2C(=O)[C@@H]2CCCN2C1=O [3BP-3170, DOTA-Met-[Cys(3MeBn)-Pro-Pro-Thr-Glu-Phe-Cys]-Asp-His-Phe-Arg-Asp-NH2] ({DOTA}-MCPPTEFCDHFRD-NH2; linker 2-8 via mXylylene) | 100 to 794 nM | 100 to 794 nM
3 | C[C@@H](O)[C@@H]1NC(=O)[C@@H]2CCCN2C(=O)[C@@H]2CCCN2C(=O)[C@@H](NC(=O)CN2CCN(CC(=O)O)CCN(CC(=O)O)CCN(CC(=O)O)CC2)CSCc2cccc(c2)CSC[C@@H](C(=O)N[C@@H](CC(=O)O)C(=O)N[C@@H](Cc2c[nH]cn2)C(=O)N[C@@H](Cc2ccccc2)C(=O)N[C@@H](CCCNC(=N)N)C(=O)N[C@@H](CC(=O)O)C(N)=O)NC(=O)[C@H](Cc2ccccc2)NC(=O)[C@H](CCC(=O)O)NC1=O [3BP-3174, DOTA-[Cys(3MeBn)-Pro-Pro-Thr-Glu-Phe-Cys]-Asp-His-Phe-Arg-Asp-NH2] ({DOTA}-CPPTEFCDHFRD-NH2; linker 1-7 via mXylylene) | 100 to 794 nM | 100 to 794 nM
4 | CSCC[C@H](NC(C)=O)C(=O)N[C@H]1CSCc2cccc(c2)CSC[C@@H](C(=O)N[C@@H](CC(=O)O)C(=O)N[C@@H](Cc2c[nH]cn2)C(=O)N[C@@H](Cc2ccccc2)C(=O)N[C@@H](CCCNC(=N)N)C(=O)N[C@@H](CC(=O)O)C(N)=O)NC(=O)[C@H](Cc2ccccc2)NC(=O)[C@H](CCC(=O)O)NC(=O)[C@H]([C@@H](C)O)NC(=O)[C@@H]2CCCN2C(=O)[C@H]2CCCN2C1=O [3BP-3176, Ac-Met-[Cys(3MeBn)-pro-Pro-Thr-Glu-Phe-Cys]-Asp-His-Phe-Arg-Asp-NH2] (Ac-MC[dP]PTEFCDHFRD-NH2; linker 2-8 via mXylylene) | 100 to 794 nM | 100 to 794 nM
5 | CSCC[C@H](NC(C)=O)C(=O)N[C@H]1CSCc2cccc(c2)CSC[C@@H](C(=O)N[C@@H](CC(=O)O)C(=O)N[C@@H](Cc2c[nH]cn2)C(=O)N[C@@H](Cc2ccccc2)C(=O)N[C@@H](CCCNC(=N)N)C(=O)N[C@@H](CC(=O)O)C(N)=O)NC(=O)[C@H](Cc2ccccc2)NC(=O)[C@H](CCC(=O)O)NC(=O)[C@@H]([C@H](C)O)NC(=O)[C@@H]2CCCN2C(=O)[C@@H]2CCCN2C1=O [3BP-3178, Ac-Met-[Cys(3MeBn)-Pro-Pro-thr-Glu-Phe-Cys]-Asp-His-Phe-Arg-Asp-NH2] (Ac-MCPP[dT]EFCDHFRD-NH2; linker 2-8 via mXylylene) | 10 to 79.4 nM | 10 to 79.4 nM
6 | CSCC[C@H](NC(C)=O)C(=O)N[C@H]1CSCc2cccc(c2)CSC[C@@H](C(=O)N[C@@H](CC(=O)O)C(=O)N[C@@H](Cc2c[nH]cn2)C(=O)N[C@@H](Cc2ccccc2)C(=O)N[C@@H](CCCNC(=N)N)C(=O)N[C@@H](CC(=O)O)C(N)=O)NC(=O)[C@H](Cc2ccccc2)NC(=O)[C@@H](CCC(=O)O)NC(=O)[C@H]([C@@H](C)O)NC(=O)[C@@H]2CCCN2C(=O)[C@@H]2CCCN2C1=O [3BP-3179, Ac-Met-[Cys(3MeBn)-Pro-Pro-Thr-glu-Phe-Cys]-Asp-His-Phe-Arg-Asp-NH2] (Ac-MCPPT[dE]FCDHFRD-NH2; linker 2-8 via mXylylene) | 10 to 79.4 nM | 100 to 794 nM
7 | CSCC[C@H](NC(C)=O)C(=O)N[C@H]1CSCc2cccc(c2)CSC[C@@H](C(=O)N[C@@H](CC(=O)O)C(=O)N[C@@H](Cc2c[nH]cn2)C(=O)N[C@@H](Cc2ccccc2)C(=O)N[C@@H](CCCNC(=N)N)C(=O)N[C@@H](CC(=O)O)C(N)=O)NC(=O)[C@@H](Cc2ccccc2)NC(=O)[C@H](CCC(=O)O)NC(=O)[C@H]([C@@H](C)O)NC(=O)[C@@H]2CCCN2C(=O)[C@@H]2CCCN2C1=O [3BP-3180, Ac-Met-[Cys(3MeBn)-Pro-Pro-Thr-Glu-phe-Cys]-Asp-His-Phe-Arg-Asp-NH2] (Ac-MCPPTE[dF]CDHFRD-NH2; linker 2-8 via mXylylene) | 100 to 794 nM | 100 to 794 nM
8 | CSCC[C@H](NC(C)=O)C(=O)N[C@H]1CSCc2cccc(c2)CSC[C@H](C(=O)N[C@@H](CC(=O)O)C(=O)N[C@@H](Cc2c[nH]cn2)C(=O)N[C@@H](Cc2ccccc2)C(=O)N[C@@H](CCCNC(=N)N)C(=O)N[C@@H](CC(=O)O)C(N)=O)NC(=O)[C@H](Cc2ccccc2)NC(=O)[C@H](CCC(=O)O)NC(=O)[C@H]([C@@H](C)O)NC(=O)[C@@H]2CCCN2C(=O)[C@@H]2CCCN2C1=O [3BP-3182, Ac-Met-[Cys(3MeBn)-Pro-Pro-Thr-Glu-Phe-cys]-Asp-His-Phe-Arg-Asp-NH2] (Ac-MCPPTEF[dC]DHFRD-NH2; linker 2-8 via mXylylene) | 10 to 79.4 nM | 10 to 79.4 nM

Now from value to compound:

Row | IC50 [1] | IC50 (Human recombinant FAP) | SMILES
9 | 10 to 79.4 nM | 10 to 79.4 nM | C[C@@H](O)[C@@H]1NC(=O)[C@@H]2CCCN2C(=O)[C@@H]2CCCN2C(=O)[C@@H](NC(=O)[C@H](Cc2ccccc2)NC(=O)CCC(=O)NCCCOCCOCCOCCCNC(=O)CN2CCN(CC(=O)O)CCN(CC(=O)O)CCN(CC(=O)O)CC2)CSCc2cccc(c2)CSC[C@@H](C(=O)N[C@@H](CC(=O)O)C(=O)N[C@@H](Cc2c[nH]cn2)C(=O)N[C@@H](Cc2ccccc2)C(=O)N[C@@H](CCCNC(=N)N)C(=O)N[C@@H](CC(=O)O)C(N)=O)NC(=O)[C@H](Cc2ccccc2)NC(=O)[C@H](CCC(=O)O)NC1=O [3BP-3171, DOTA-Ttds-Phe-[Cys(3MeBn)-Pro-Pro-Thr-Glu-Phe-Cys]-Asp-His-Phe-Arg-Asp-NH2] ({X2-Suc}-FCPPTEFCDHFRD-NH2; linker 2-8 via mXylylene)
10 | < 10 nM | < 10 nM | CC(C)C[C@H](NC(=O)CCC(=O)NCCCOCCOCCOCCOCCCNC(=O)CN1CCN(CC(=O)O)CCN(CC(=O)O)CCN(CC(=O)O)CC1)C(=O)N[C@H]1CSCc2cccc(c2)CSC[C@@H](C(=O)N[C@@H](CC(=O)O)C(=O)N[C@@H](Cc2c[nH]cn2)C(=O)N[C@@H](Cc2ccccc2)C(=O)N[C@@H](CCCNC(=N)N)C(=O)N[C@@H](CC(=O)O)C(N)=O)NC(=O)[C@H](Cc2ccccc2)NC(=O)[C@H](CCC(=O)O)NC(=O)[C@H]2NC(=O)[C@@H]3C(CCN3C(=O)[C@@H]3CCCN3C1=O)[C@H]2O [3BP-3172, DOTA-Ttds-Leu-[Cys(3MeBn)-Pro-Pro-Thr-Glu-Phe-Cys]-Asp-His-Phe-Arg-Asp-NH2]
11 | 10 to 79.4 nM | 10 to 79.4 nM | C[C@@H](O)[C@@H]1NC(=O)[C@@H]2CCCN2C(=O)[C@@H]2CCCN2C(=O)[C@@H](NC(=O)[C@H](CCC(=O)O)NC(=O)CCC(=O)NCCCOCCOCCOCCCNC(=O)CN2CCN(CC(=O)O)CCN(CC(=O)O)CCN(CC(=O)O)CC2)CSCc2cccc(c2)CSC[C@@H](C(=O)N[C@@H](CC(=O)O)C(=O)N[C@@H](Cc2c[nH]cn2)C(=O)N[C@@H](Cc2ccccc2)C(=O)N[C@@H](CCCNC(=N)N)C(=O)N[C@@H](CC(=O)O)C(N)=O)NC(=O)[C@H](Cc2ccccc2)NC(=O)[C@H](CCC(=O)O)NC1=O [3BP-3173, DOTA-Ttds-Glu-[Cys(3MeBn)-Pro-Pro-Thr-Glu-Phe-Cys]-Asp-His-Phe-Arg-Asp-NH2] ({X2-Suc}-ECPPTEFCDHFRD-NH2; linker 2-8 via mXylylene)
12 | < 10 nM | < 10 nM | CSCC[C@H](NC(C)=O)C(=O)N[C@H]1CSCc2cccc(c2)CSC[C@@H](C(=O)N[C@@H](CC(=O)O)C(=O)N[C@@H](Cc2c[nH]cn2)C(=O)N[C@@H](Cc2cccnc2)C(=O)N[C@@H](CCCNC(=N)N)C(=O)N[C@@H](CC(=O)O)C(N)=O)NC(=O)[C@H](Cc2ccccc2)NC(=O)[C@H](CCC(=O)O)NC(=O)[C@H]([C@@H](C)O)NC(=O)[C@@H]2CCCN2C(=O)[C@@H]2CCCN2C1=O [3BP-3192, Ac-Met-[Cys(3MeBn)-Pro-Pro-Thr-Glu-Phe-Cys]-Asp-His-Mpa-Arg-Asp-NH2] (Ac-MCPPTEFCDH[3Pal]RD-NH2; linker 2-8 via mXylylene)
